This is an account of results in US20240216412A1, “OXIDIZED NICOTINAMIDE ADENINE DINUCLEOTIDE (NAD+) PRECURSOR TREATMENT FOR HEART FAILURE ALLEVIATION INDEPENDENT OF MITOCHONDRIAL PROTEIN DEACETYLATION” (University of Washington, priority 2022, published 2024).

Test [1] concerns WT TAC heart transcriptome. Kind of test: RNA sequencing with GSEA of TAC hearts. Format: in vivo, mouse. Conditions: NR treated TAC hearts vs vehicle. The protocol: RNA Sequencing. Total RNA was extracted from 30 mg of heart tissue using the Qiagen RNeasy kit. RNA Sequencing and quality control was performed BGI (BGISEQ-500). Data Analysis-RNAseq samples were aligned using Tophat (Trapnell et al., 2009) (version 2.0.13). Genelevel read counts were quantified using htseq-count (Anders et al., 2015). Genes expressed above 4TPM in at least 2 samples were used. In differential expression (DESeq), A gene to have total normalized reads above 10 across all samples. DeSeq (Anders and Huber, 2010) was used for differential gene expression analysis. Genes with fold change >1.5 and FDR <0.1 were considered differentially expressed. GSEA was performed using Broad Institute software against the Reactome database. Iregulon v1.3 was used to predict transcription factor binding motif. The following options were used: Motif collection 10 K (9713 PWMs), putative regulatory region 20 kb centered around TSS (7 species). Program default settings for Recovery and Transcription factor prediction options were selected for the analysis.

The subject of test [2] is chronic pressure overload (TAC) induced heart failure in WT and Sirt3Ko mice. Kind of test: Survival, organ weight and histology (HW/TL, lung edema, fibrosis) after TAC. The class given is in vivo, mouse. The procedure: Mice randomly received either NR (500 mg/kg body weight) (Canto et al., 2012) or vehicle saline daily for eight-weeks. Representative M-mode images for the echocardiography can be found in FIGS. 1C and 1D. Four weeks of chronic pressure overload caused similar declines in left ventricular fractional shortening (FS %) in mice randomized to NR or vehicle groups for either WT or Sirt3Ko (FIGS. 1E and 1F). […] Similar to NR treated WT, cardiac hypertrophy, left ventricular cavity dilation, and lung edema were less severe in Sirt3Ko TAO mice that received NR treatment (FIGS. 1B-1J). All echocardiography parameters can be found in Table 1 below.
Transverse aortic constriction. Male mice (3-4 months old) underwent transverse aortic constriction (TAC) or sham surgery. Briefly, mice were anesthetized with an IP injection of 130 mg/kg ketamine and 8.8 mg/kg xylazine in saline. Mice were intubated with 20 G cannula and ventilated 140 breaths per minute by small animal TOPO ventilator (Kent Scientific). The aortic arch was exposed via a left thoracotomy and by carefully separating the thymus. A constriction of the transverse aorta was generated by tying a 6-0 Ethilon ligature against a 27-gauge blunt needle around the aorta between the brachiocephalic and left common carotid arteries. Promptly the needle was removed and the chest and skin were closed by 5-0 polypropylene suture. The animal was removed from ventilation and kept on a heating blanket during recovery from anesthesia. SR buprenorphine (0.05 mg/kg) was administered subcutaneously for analgesia. Sham operated mice underwent all the same procedures as TAC mice excluding the constriction of the aorta. All mice were monitored every 12 h during the first 72 h post-surgery, followed by daily visits over the next 4 weeks.
Organ weight and histological assessment. Hearts from mice were harvested, rinsed briefly in 1×PBS, blotted dry, and weighed. Lungs from the same mice were harvested, weighed, then dried at 56 C. After 72 hours the lungs were weighed again. Heart weight (HW) and Lung weight (LW) was normalized to tibia length (TL) to assess changes in hypertrophic growth and lung edema, respectively. For histology, hearts were perfusion fixed with 10% neutral buffered formalin. Longitudinal sections of hearts were stained with Masson's Trichrome for assessment of fibrosis by the University of Washington Histology and Imaging Core.

Test [3] relates to NAD+ salvage pathway / NAD(H) redox in mouse heart. Nature of the test: Cardiac NAD+/NADH determination and targeted LC-MS metabolomics in TAC hearts. The class given is in vivo. The procedure:
NAD^+/NADH determination. NAD^+ and NADH were determined in 8 mg heart tissue using BioAssay Systems EnzyChrom NAD^+/NAD Assay Kit (E2ND-100) per manufactures instructions.
Targeted Metabolomics. Analysis of metabolites was done by The Northwest Metabolomics Research Center at the University of Washington. Briefly, aqueous metabolites for targeted LC-MS profiling of heart tissue samples were extracted from frozen heart tissue (10 mg) by precipitating in 80:20% methanol:water. After centrifugation, the supernatant was transferred to LC/MS auto sampler vials (Thermo Fisher). The protein pellet was redissolved in 0.1M NaOH and protein concentration measured for normalization. Samples were first homogenized in 200 μL purified deionized water at 4° C., and then 800 μL of cold methanol. Afterwards samples were vortexed, stored for 30 minutes at −20° C., sonicated in an ice bath for 10 minutes, centrifuged for 15 min at 14,000 rpm and 4° C., and then 600 μL of supernatant was collected from each sample. […] Samples were transferred into LC vials and placed into a temperature controlled autosampler for LC-MS analysis.
LC-MS Assay. Targeted LC-MS metabolite analysis was performed on a duplex-LC-MS system composed of two Shimadzu UPLC pumps, CTC Analytics PAL HTC-xt temperature-controlled auto-sampler (set at 4° C.) and AB Sciex 6500+ Triple Quadrupole MS equipped with ESI ionization source (2). UPLC pumps were connected to the autosampler in parallel and were able to perform two chromatography separations independently from each other. Each sample was injected twice on two identical analytical columns (Waters XBridge BEH Amide XP) performing separations in hydrophilic interaction liquid chromatography (HILIC) mode. While one column was performing separation and MS data acquisition in ESI+ ionization mode, the other column was getting equilibrated for sample injection, chromatography separation and MS data acquisition in ESI-mode. Each chromatography separation was 18 minutes (total analysis time per sample was 36 minutes). MS data acquisition was performed in multiple-reaction-monitoring (MRM) mode. LC-MS system was controlled using AB Sciex Analyst 1.6.3 software. Measured MS peaks were integrated using AB Sciex MultiQuant 3.0.3 software. The LC-MS assay was targeting 361 metabolites (plus 2 spiked reference internal standards). Up to 192 metabolites (plus 2 spiked standards) were measured across the study set, and over 95% of measured metabolites were measured across all the samples. In the addition to the study samples, two sets of quality control (QC) samples were used to monitor the assay performance as well as data reproducibility. One QC [QC(I)] was a pooled human serum sample used to monitor system performance and the other QC [QC(S)] was pooled study samples and this QC was used to monitor data reproducibility. Each QC sample was injected per every 10 study samples. The data were well reproducible with a median CV of 7.0%.

The mark [4] stands for this setting: Sirt3Ko TAC mice, similar to NR treated WT.

Each structure is given as a SMILES string.

On to `NC(=O)c1ccc[n+]([C@@H]2O[C@H](CO)[C@@H](O)[C@H]2O)c1` [NR, Nicotinamide riboside chloride], for which, in test [1], the “Pathways of genes significantly downregulated (GSEA)” value is “enriched in pathways relating to collagen formation and extracellular matrix organization”; the “Pathways of genes significantly upregulated (GSEA)” value was “enriched in pathways relating to mitochondrial metabolism”. Besides, the “Fibrosis (Masson's trichrome)” value in test [2] (Sirt3Ko TAC mice) is reported as “decreased fibrosis”. Also, in test [2] (setting [4]), the Cardiac hypertrophy result is given as “less severe” and the Lung edema result is “less severe”. Further, in test [2] (WT and Sirt3Ko TAC mice, NR vs vehicle for eight weeks), the “Mortality (Kaplan-Meier survival curve analysis)” value is reported as “no significant difference in mortality”. For the same molecule, the “Markers of lipid oxidation (oxidized glutathione)” value in test [3] (TAC mice) is “decreased”. In addition, in test [3] (WT and Sirt3Ko hearts), the “Cardiac levels of NAD(H)” value is “increased”, the “Cardiac levels of methyl-nicotinamide (MeNAM)” value is on record as “increased” and the “Cardiac levels of nicotinamide (NAM)” value is “increased”. Moreover, in test [3] (both genotypes, after TAC), the “NAD+/NADH ratio” value is reported as “normalized”. Moreover, the “Metabolites indicative of myocardial fibrosis (hydroxyproline, putrescine, spermidine)” value in test [3] (myocardial tissue of TAC hearts, vs vehicle) is recorded as “reduced”.
